Assay results from US8017611B2, “Pyridine and pyrazine derivatives -083” (AstraZeneca AB, priority 2007, dated 2011).

Biological target: T1, recombinant Axl tyrosine kinase (Homo sapiens, UniProt P30530)
T1 construct: encompassing amino acids 473 to 894 of Axl; GST (N); made in house; host or cells: SF126 insect cells
T1 sequence (P30530 473-894): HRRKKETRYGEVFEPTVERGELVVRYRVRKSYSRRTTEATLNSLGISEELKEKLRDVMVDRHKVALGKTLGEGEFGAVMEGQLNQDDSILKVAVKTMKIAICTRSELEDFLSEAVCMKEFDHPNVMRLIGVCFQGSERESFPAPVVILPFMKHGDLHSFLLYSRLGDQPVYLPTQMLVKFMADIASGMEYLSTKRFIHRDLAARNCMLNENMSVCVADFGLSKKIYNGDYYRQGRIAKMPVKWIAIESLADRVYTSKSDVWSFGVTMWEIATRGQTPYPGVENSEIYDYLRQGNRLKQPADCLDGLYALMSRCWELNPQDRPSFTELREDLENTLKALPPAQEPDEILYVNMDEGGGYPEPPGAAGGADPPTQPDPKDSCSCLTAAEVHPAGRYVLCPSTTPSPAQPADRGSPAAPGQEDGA
Test: In vitro Axl kinase assay (AlphaScreen), Test (a)
Assay type: biochemical
Conditions: 1 μM; mean calculated from a larger number of replicates than the first value

% Axl tyrosine kinase inhibition at 1 μM concentration (second value, †) [%] | Structure (SMILES)
99.3 | Nc1ncc(-c2cccc(N3CCNCC3)c2)nc1-c1nc2ccccc2o1 [Example 20.2]

Same assay, conditions: Test (a); read-out: IC50 versus Axl tyrosine kinase

IC50 [nM] | Structure (SMILES)
~0.2 | COc1cccc2nc(-c3cc(-c4cn(C5CCN(C)CC5)nc4CO)cnc3N)oc12 [Example 41.42]

Same assay, conditions: test compound at 1 μM; first value quoted

Structure (SMILES) | % Axl tyrosine kinase inhibition at 1 μM concentration [%]
Nc1ncc(-c2cccc(CN3CCCCC3)c2)cc1-c1nc2ncccc2o1 [Example 10A.11] | 88.4
Nc1ncc(-c2ccc(C(=O)NCCN3CCOCC3)cc2)cc1-c1nc2cccnc2o1 [Example 45A.51] | 98.5
CN1CCOC(CNC(=O)c2ccc(-c3cnc(N)c(-c4nc5cccnc5o4)c3)cc2)C1 (stereo not shown) [Example 45A.28] | 97.5
CN(C)C(=O)CN1CCN(C(=O)c2ccc(-c3cnc(N)c(-c4nc5ncccc5o4)c3)cc2)CC1 [Example 45B.6] | 95.9
Nc1ncc(-c2ccc(C(=O)N3CCC(N4CCOCC4)CC3)cc2)cc1-c1nc2cccnc2o1 [Example 45A.64] | 98.6
Nc1ncc(-c2ccc(OC[C@H]3CCCN3)cc2)cc1-c1nc2ncccc2o1 [Example 43B.28] | 98.7
N#Cc1cccc2oc(-c3cc(-c4cnn(C5CCNCC5)c4)cnc3N)nc12 [Example 38A.3] | 99.9
COCC1CC(Oc2ccc(-c3cnc(N)c(-c4nc5ncccc5o4)c3)cc2OC)CN1 (stereo not shown) [Example 43C.36] | 99.8
Nc1ncc(-c2ccc(C(=O)NCCN3CC[C@H](F)C3)cc2)cc1-c1nc2cccnc2o1 [Example 45A.38] | 98.4
COc1cc(-c2cnc(N)c(-c3nc4ncccc4o3)c2)ccc1OCCN [Example 43C.21] | 99.3
NCCCOc1ccc(-c2cnc(N)c(-c3nc4ncccc4o3)c2)cc1 [Example 43B.31] | 97.1
Nc1ncc(-c2ccc(OCCCN3CCS(=O)(=O)CC3)cc2)cc1-c1nc2ncccc2o1 [Example 43B.16] | 95.3
COc1cc(-c2cnc(N)c(-c3nc4ncccc4o3)c2)ccc1OCCCN(C)C [Example 43C.10] | 98.9
Nc1ncc(-c2ccc(C(=O)NCC3CCCCN3)cc2)cc1-c1nc2cccnc2o1 (stereo not shown) [Example 45A.104] | 99.8
CN(C)CCCNC(=O)c1ccc(-c2cnc(N)c(-c3nc4ncccc4o3)c2)cc1 [Example 10A.12] | 99.0
Nc1ncc(-c2ccc(CO)s2)cc1-c1nc2cnccc2o1 [Example 8A.5] | 96.8
Nc1ncc(-c2ccc(C(=O)N3CC(N)C3)cc2)cc1-c1nc2cccnc2o1 [Example 45A.105] | 98.4
CN1C2CCC1CC(Oc1ccc(-c3cnc(N)c(-c4nc5ncccc5o4)c3)cc1)C2 (stereo not shown) [Example 43B.21] | 99.6
CCN(CC)CCNC(=O)c1cccc(-c2cnc(N)c(-c3nc4cccnc4o3)c2)c1 [Example 9A.7] | 91.7
Nc1ncc(-c2ccc(C(=O)N3CCOCC3)cc2)cc1-c1nc2ncccc2o1 [Example 10A.14] | 92.7
CN1CC(NC(=O)c2ccc(-c3cnc(N)c(-c4nc5cccnc5o4)c3)cc2)C1 [Example 45A.30] | 97.4
CNCCCNC(=O)c1ccc(-c2cnc(N)c(-c3nc4cccnc4o3)c2)cc1 [Example 45A.81] | 99.6
COc1cc(-c2cnc(N)c(-c3nc4ncccc4o3)c2)ccc1OCCN1CCCCC1 [Example 43C.8] | 99.9
CN(C)C1(CNC(=O)c2ccc(-c3cnc(N)c(-c4nc5cccnc5o4)c3)cc2)CCCCC1 [Example 45A.41] | 99.0
Nc1ncc(-c2ccc(C(=O)NCCN3CCNCC3)cc2)cc1-c1nc2cccnc2o1 [Example 45A.83] | 98.9
CCN1CCC(CNC(=O)c2ccc(-c3cnc(N)c(-c4nc5cccnc5o4)c3)cc2)CC1 [Example 45A.47] | 96.1

The remaining lines, values ahead:

% Axl tyrosine kinase inhibition at 1 μM concentration [%] | Structure (SMILES)
99.6 | N#CCc1cccc(-c2cnc(N)c(-c3nc4ccccc4o3)n2)c1 [Example 20.16]
100.0 | COc1cccc2nc(-c3cc(-c4cn(C5CCNCC5)nc4CO)cnc3N)oc12 [Example 62.13]
99.7 | CN(C)CCC(=O)N1CCC(n2cc(-c3cnc(N)c(-c4nc5cccnc5o4)c3)cn2)CC1 [Example 59.13]
89.2 | Nc1ncc(-c2cccc(N3CCCCC3)c2)nc1-c1nc2ccccc2o1 [Example 20.4]
99.3 | CN1CCCC(n2cc(-c3cnc(N)c(-c4nc5ccccc5o4)c3)cn2)C1 (stereo not shown) [Example 41.2]
99.9 | Nc1ncc(-c2cnn(C3CCCNC3)c2)cc1-c1nc2ccccc2o1 (stereo not shown) [Example 29.6]
97.2 | CCS(=O)(=O)c1cccc(-c2cnc(N)c(-c3nc4ccccc4o3)n2)c1 [Example 20.13]
100.0 | CCOc1nn(C2CCNCC2)cc1-c1cnc(N)c(-c2nc3ccccc3o2)c1 [Example 25.3]
94.0 | Nc1ncc(-c2ccc(CO)cc2)cc1-c1nc2ccccc2o1 [Example 2.16]
99.3 | CC(=O)N1CCC(n2cc(-c3cnc(N)c(-c4nc5cccnc5o4)c3)cn2)CC1 [Example 57.4]
100.0 | COc1nn(C2CCNCC2)cc1-c1cnc(N)c(-c2nc3ccccc3o2)c1 [Example 25.2]
99.9 | CN1CCC(n2cc(-c3cnc(N)c(-c4nc5ccccc5o4)c3)c(N(C)C)n2)CC1 [Example 41.31]
100.0 | Cc1nn(C2CCN(C)CC2)cc1-c1cnc(N)c(-c2nc3ncccc3o2)c1 [Example 41.22]
85.1 | CN(C)S(=O)(=O)c1ccc(-c2cnc(N)c(-c3nc4ccccc4o3)c2)cc1 [Example 2.28]
99.6 | Nc1ncc(-c2cccc(N3CCNCC3)c2)nc1-c1nc2ccccc2o1 [Example 20.2]
88.9 | Nc1ncc(-c2cnc3ccccc3c2)cc1-c1nc2ccccc2o1 [Example 2.24]
95.0 | N#CCC1(n2cc(-c3cnc(N)c(-c4nc5ccccc5o4)c3)cn2)CCNCC1 [Example 25.1]
99.7 | Cc1ccc2nc(-c3cc(-c4cnn(C5CCN(C)CC5)c4)cnc3N)oc2c1 [Example 7.9]
97.9 | Nc1ncc(-c2cccc(CN3CCOCC3)c2)cc1-c1nc2ccccc2o1 [Example 2.22]
100.0 | Cc1c(-c2cnc(N)c(-c3nc4ccccc4o3)c2)cnn1C1CCN(C)CC1 [Example 41.18]
99.8 | Nc1ncc(-c2cnn(C3CCOCC3)c2)cc1-c1nc2ccccc2o1 [Example 27.7]
99.9 | CN(C)CCC(=O)N1CCC(n2cc(-c3cnc(N)c(-c4nc5ncccc5o4)c3)cn2)CC1 [Example 59.6]
98.1 | CS(=O)(=O)Oc1cccc(-c2cnc(N)c(-c3nc4ccccc4o3)n2)c1 [Example 20.18]
100.0 | COc1cccc2nc(-c3cc(-c4cn(C5CCN(C)CC5)nc4CO)cnc3N)oc12 [Example 41.42]
98.2 | COCCC(=O)N1CCC(n2cc(-c3cnc(N)c(-c4nc5cccnc5o4)c3)cn2)CC1 [Example 59.8]
99.9 | Nc1ncc(-c2cnn(CCCN3CCC[C@@H]3CO)c2)cc1-c1nc2ccccc2o1 [Example 31.2]
99.7 | CN1CCC(n2cc(-c3cnc(N)c(-c4nc5cccc(F)c5o4)c3)cn2)CC1 [Example 41.10]
99.8 | CN1CCC(n2cc(-c3cnc(N)c(-c4nc5c(C#N)cccc5o4)c3)cn2)CC1 [Example 41.25]
99.2 | CN(C)CCCn1cc(-c2cnc(N)c(-c3nc4ccccc4o3)c2)cn1 [Example 27.4]

Same assay, conditions: test compound at 1 μM; first value quoted; read-out: % Axl tyrosine kinase inhibition at 1 μM concentration

inhibition at 1 µM [%] | Structure (SMILES)
100 | Nc1ncc(-c2cn(C3CCNCC3)nn2)cc1-c1nc2ccccc2o1 [Example 40, 3-(1,3-benzoxazol-2-yl)-5-[1-(4-piperidyl)triazol-4-yl]pyridin-2-amine]
98.4 | CNCc1nn(C2CCN(C(C)=O)CC2)cc1-c1cnc(N)c(-c2nc3ccccc3o2)c1 [Example 63, 1-[4-[4-[6-amino-5-(1,3-benzoxazol-2-yl)-3-pyridyl]-3-(methylaminomethyl)pyrazol-1-yl]-1-piperidyl]ethanone]
99.5 | CN(C)CC(=O)N1CCC(n2cc(-c3cnc(N)c(-c4nc5ncccc5o4)c3)cn2)CC1 [Example 58, 1-[4-[4-(6-amino-5-oxazolo[4,5-b]pyridin-2-yl-3-pyridyl)pyrazol-1-yl]-1-piperidyl]-2-dimethylamino-ethanone]
99.7 | Nc1ncc(-c2cnn(CCCO)c2)cc1-c1nc2ccccc2o1 [Example 29.1, 3-[4-[6-amino-5-(1,3-benzoxazol-2-yl)-3-pyridyl]pyrazol-1-yl]propan-1-ol]
